Tests used:
BALB/c mice [1] = assay: LPS-induced serum TNF-α and soluble ICAM-1 in mice (ELISA); assay type: in vivo; conditions: serum 2 hours after LPS
Method: FIG. 2 is a set of bar graphs showing P13 inhibition of serum inflammatory mediators. BALB/c mice were injected intraperitoneally (i.p.) with 5 mg/kg LPS and 30 minutes later injected i.p. with P13 (15, 50, or 75 μg) or PBS. Two hours after LPS injection, serum was collected and TNF-α and soluble ICAM-1 were quantified by ELISA. Values represent means +/−S.D.
Serum cytokines and soluble ICAM-1. BALB/c female mice were injected intraperitoneally (i.p.) with 5 mg/kg of LPS and peptide P13 (15, 50, or 75 μg) or PBS was injected i.p. 30 minutes later. Two hours after injection of LPS, serum was collected and TNF-α and soluble ICAM-1 quantified by ELISA (R&D Systems).
To determine the effect of peptide treatment on the induction of serum inflammatory mediators, mice were injected with a sub-lethal high dose of LPS and 30 minutes later with P13 or phosphate buffered saline (PBS). Serum was collected 2 hours after treatment with LPS. TNF-α and soluble ICAM-1 were quantified by ELISA. […] The effect of delayed peptide P13 treatment at different doses of peptide on LPS-induced production of soluble ICAM-1 was examined.

[2] = system: murine bEND.3 endothelial cell line; assay: LPS-induced MIP-2 and IL-6 production by endothelial cells (ELISA of supernatants); assay type: cell-based; conditions: 15 μg/well or 20 μg/well peptide, 15 min pre-treatment, LPS 12.5 ng/well, 4-hour supernatants
Method: FIG. 1 is a set of bar graphs showing P13 inhibition of macrophage inflammatory protein (MIP)-2 and interleukin (IL)-6. Murine endothelial cell line bEND.3 (2×10^5 cells/48-well plate) were pre-treated for 15 minutes with P13 or scrambled control peptide at matching peptide concentrations (15 or 20 μg/well) and then with LPS (12.5 ng/well). MIP-2 and IL-6 were quantified by ELISA from 4-hour cell-free supernatants. Cytokine values represent means +/−S.D. from quadruplicate wells/experimental condition.
Quantification of cytokines from cell supernatants. IL-6 and MIP-2 ELISA kits were used to assay cytokine levels in cell culture supernatants according to the protocols provided by the manufacturer (R&D Systems, Minneapolis, Minn.).
Because endothelial cells can be activated and even damaged in response to LPS exposure, the effect of treatment with peptide P13 on LPS-induced cytokine responses from the murine bEND.3 endothelial cell line was examined. Treatment of the bEND cells with LPS induced secretion of MIP-2 and IL-6.

HC-NPC co-cultures = assay: Inflammatory mediators in LPS-stimulated HC-NPC co-cultures; assay type: cell-based; conditions: stimulated with LPS
BALB/c mice [3] = assay: LPS-induced sepsis model, lethality after high dose LPS; assay type: in vivo; conditions: LPS 70 mg/kg i.p.; peptide 75 μg s.c. at 2 and 6 hours after LPS
Method: FIG. 3 is a line graph illustrating decreased mortality in P13-treated mice after high dose LPS. BALB/c mice were injected i.p. with LPS (70 mg/kg) and 2 and 6 hrs later treated s.c. with P13 or control peptide (75 μg/mouse/injection). The mice (10 animals/group) were monitored every 3-4 hours for lethality, and the experiment was terminated after 96 hrs.
LPS-induced sepsis. Female BALB/c mice were injected i.p. with 70 mg/kg of LPS. At 2 and 6 hours after injection of LPS, mice were treated with scrambled control peptide or peptide P13. The peptides were administered subcutaneously at 75 μg/animal/injection time, with 10 mice/treatment group. The mice were monitored every 3-4 hours and the experiment was terminated after 96 hours.
As P13 inhibited production of inflammatory mediators in vivo, an LPS-induced murine sepsis model was used to determine the effect of peptide P13 on survival. Mice were injected with lethal dose of LPS (70 mg/kg) and treated 2 and 6 hours later with scrambled control peptide (75 μg) or a matching concentration of peptide P13. […] The experiment was terminated at 96 hours and P13 treated mice remained at 40% survival (FIG. 3). These studies confirm the in vivo activity of peptide P13 to reduce lethality in an LPS sepsis model even when peptide treatment is initiated after administration of LPS.

TLR-dependent signaling = conditions: in vitro; cited from earlier work
[4] = system: animals treated with low dose LPS plus D-GaLN; assay: Survival after low dose LPS plus D-GaLN; assay type: in vivo

Row | Substance | inhibition of serum TNF-α (BALB/c mice [1]; 50 μg i.p. 30 min after 5 mg/kg LPS i.p.) | inhibition of serum TNF-α (BALB/c mice [1]; 75 μg i.p. 30 min after 5 mg/kg LPS i.p.) | inhibition of IL-6 production [2] | inhibition of MIP-2 production [2] | production of inflammatory mediators (HC-NPC co-cultures) | lethality at 36 hours (BALB/c mice [3]) [%] | lethality at 74 hours (BALB/c mice [3]) [%] | survival at 96 hours (BALB/c mice [3]) [%] | inhibition of TLR-dependent signaling (TLR-dependent signaling) | survival [4]
1 | DIVKLTVYDCI-RRRRRRRRR (listed as Vaccinia virus) [P13, A52R amino acids 125 to 135 linked to nine arginines] | did not reduce | significant inhibition | > 90% | > 90% | reduced the production of inflammatory mediators | 60 | 60 | 40 | capable of in vitro inhibition | enhance survival
2 | ITCVDVDLIYK-RRRRRRRRR (ITCVDVDLIYKRRRRRRRRR; listed as Vaccinia virus) [scrambled control peptide, scrambled control of P13 with nine arginines, reference compound] | – | – | only modest inhibition | only modest inhibition | – | 90 | 100 | – | – | –

— patent US20120178667A1, “METHODS FOR TREATING SEPTIC SHOCK” (THE GOVERNMENT OF THE UNITED STATES OF AMERICA, dba THE …, priority 2006, published 2012)
